We go through eleven compounds from patent US8859584B2, “TRPV1 antagonists” (AbbVie Inc., priority 2011, dated 2014).

Experiment [1] has as its target T1, human TRPV1 (Homo sapiens, UniProt Q8NER1).
T1 construct: expressed in transfected cells
The experiment is described as follows: Acid Activation Assay (pH 5.0, FLIPR intracellular Ca2+, recombinant HEK293 cells). Type of experiment: cell-based. To be noted: percentage of maximal pH 5.0-induced response remaining; HEK293 hTRPV1; max concentration 37.5 μM. Summed up: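 HEK293 cells stably expressing recombinant hTRPV1 were loaded with calcium dye for 90-120 min at 25° C and pre-treated with compound for 3 min before a pH 5.0 (DPBS/MES) challenge. Peak FLIPR fluorescence over baseline is given as percentage of the maximal pH 5.0-induced response.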

Experiment [2] deals with T1, human TRPV1. The experiment is described as follows: Capsaicin Activation Assay (FLIPR intracellular Ca2+, recombinant HEK293 cells). Type of experiment: cell-based. To be noted: recombinant HEK293 cells expressing hTRPV1; 50 nM capsaicin; read-out: human TRPV1 capsaicin IC50.

T1 sequence (Q8NER1 whole entry): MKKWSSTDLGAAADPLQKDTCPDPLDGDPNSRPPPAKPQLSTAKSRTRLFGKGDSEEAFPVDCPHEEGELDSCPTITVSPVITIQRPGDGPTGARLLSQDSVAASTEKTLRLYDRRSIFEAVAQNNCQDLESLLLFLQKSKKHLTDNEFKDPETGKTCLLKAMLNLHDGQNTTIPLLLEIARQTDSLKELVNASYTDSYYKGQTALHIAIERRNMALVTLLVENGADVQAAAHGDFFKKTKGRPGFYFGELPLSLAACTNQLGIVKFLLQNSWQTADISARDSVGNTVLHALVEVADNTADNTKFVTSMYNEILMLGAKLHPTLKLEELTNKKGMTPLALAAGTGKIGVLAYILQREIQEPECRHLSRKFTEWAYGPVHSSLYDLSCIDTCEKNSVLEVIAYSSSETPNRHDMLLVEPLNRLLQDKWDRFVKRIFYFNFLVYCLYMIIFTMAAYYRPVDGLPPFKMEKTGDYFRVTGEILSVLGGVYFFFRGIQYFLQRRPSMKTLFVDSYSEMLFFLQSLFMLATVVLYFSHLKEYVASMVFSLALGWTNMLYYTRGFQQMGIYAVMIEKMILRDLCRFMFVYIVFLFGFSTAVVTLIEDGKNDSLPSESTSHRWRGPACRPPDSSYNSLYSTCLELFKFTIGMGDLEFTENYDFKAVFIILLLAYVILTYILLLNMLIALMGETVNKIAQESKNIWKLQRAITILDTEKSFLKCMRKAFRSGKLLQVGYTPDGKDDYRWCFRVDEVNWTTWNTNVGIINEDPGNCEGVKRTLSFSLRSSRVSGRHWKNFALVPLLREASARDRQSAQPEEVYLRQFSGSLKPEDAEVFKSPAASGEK

For `CC(C)(C)c1cccc2c1OCC[C@H]2NC(=O)Nc1cccc2c1C[C@H](O)C2` [Example 51, 1-[(4R)-8-tert-butyl-3,4-dihydro-2H-chromen-4-yl]-3-[(2R)-2-hydroxy-2,3-dihydro-1H-inden-4-yl]urea], the “human TRPV1 H+ (max % remain)” value at human TRPV1 [1] is 70%. The IC50 at human TRPV1 [2] worked out at 18 nM.
Consider `O=C(Nc1ccc(F)c2c1C[C@H](O)C2)N[C@@H]1CC(CF)(CF)Oc2c(F)cc(F)cc21` [Example 142, 1-[(4R)-6,8-difluoro-2,2-bis(fluoromethyl)-3,4-dihydro-2H-chromen-4-yl]-3-[(2S)-7-fluoro-2-hydroxy-2,3-dihydro-1H-inden-4-yl]urea], for which the “human TRPV1 H+ (max % remain)” value on human TRPV1 [1] came out at 4%. Further, at human TRPV1 [2], the IC50 was found to be 4000 nM.
On the same counts, the results for `CC(=O)Nc1nc2c(Oc3cc(-c4ccc(C(F)(F)F)cc4)ncn3)cccc2s1` [A, reference compound] are 10% and 20 nM.
For the compound `O=C(Nc1c(F)ccc2c1C[C@H](O)C2)N[C@@H]1CC(CF)(CF)Oc2cc(Cl)ccc21` [Example 175, 1-[(4R)-7-chloro-2,2-bis(fluoromethyl)-3,4-dihydro-2H-chromen-4-yl]-3-[(2R)-5-fluoro-2-hydroxy-2,3-dihydro-1H-inden-4-yl]urea], the “human TRPV1 H+ (max % remain)” value at human TRPV1 [1] stood at 37%. Further, the IC50 at human TRPV1 [2] was determined as 470 nM.
The corresponding values for `COc1ccc(CC2COc3ccccc3C2NC(=O)Nc2cccc3c2CC(O)C3)cc1OC` (stereo not shown) [Example 109, 1-[3-(3,4-dimethoxybenzyl)-3,4-dihydro-2H-chromen-4-yl]-3-(2-hydroxy-2,3-dihydro-1H-inden-4-yl)urea] are 89% and 3100 nM.
The corresponding values for `CC1(C)C[C@@H](NC(=O)Nc2ccc(F)c3c2C[C@H](O)C3)c2ccc(F)cc2O1` [Example 138, 1-[(4R)-7-fluoro-2,2-dimethyl-3,4-dihydro-2H-chromen-4-yl]-3-[(2S)-7-fluoro-2-hydroxy-2,3-dihydro-1H-inden-4-yl]urea] are 4% and 820 nM.
On the same counts, the results for `O=C(Nc1cccc2c1CC(O)C2)NC1CC(c2ccc(Cl)cc2)Oc2ccccc21` (stereo not shown) [Example 117, 1-[2-(4-chlorophenyl)-3,4-dihydro-2H-chromen-4-yl]-3-(2-hydroxy-2,3-dihydro-1H-inden-4-yl)urea] are 45% and 130 nM.
With `O=C(Nc1ccc(F)c2c1C[C@@H](O)C2)N[C@@H]1CC(CF)(CF)Oc2ccc(F)cc21` [Example 161, 1-[(4R)-6-fluoro-2,2-bis(fluoromethyl)-3,4-dihydro-2H-chromen-4-yl]-3-[(2R)-7-fluoro-2-hydroxy-2,3-dihydro-1H-inden-4-yl]urea], the “human TRPV1 H+ (max % remain)” value on human TRPV1 [1] is given as 47%. For the same compound, the IC50 at human TRPV1 [2] is 3900 nM.
In the case of `O=C(Nc1cccc2c1C[C@H](O)C2)N[C@@H]1CC(CF)(CF)Oc2cc(F)ccc21` [Example 129, 1-[(4R)-7-fluoro-2,2-bis(fluoromethyl)-3,4-dihydro-2H-chromen-4-yl]-3-[(2R)-2-hydroxy-2,3-dihydro-1H-inden-4-yl]urea], the “human TRPV1 H+ (max % remain)” value on human TRPV1 [1] is given as 53%. In addition, the IC50 at human TRPV1 [2] came out at 360 nM.
On the same counts, the results for `CC1(C)C[C@@H](NC(=O)Nc2ccc(F)c3c2C[C@@H](O)C3)c2ccc(F)c(Cl)c2O1` [Example 166, 1-[(4R)-8-chloro-7-fluoro-2,2-dimethyl-3,4-dihydro-2H-chromen-4-yl]-3-[(2R)-7-fluoro-2-hydroxy-2,3-dihydro-1H-inden-4-yl]urea] are 43% and 65 nM.
On the same counts, the results for `O=C(Nc1cccc2c1C[C@H](O)C2)N[C@@H]1CCc2c1cccc2C(F)(F)F` [Example 41, 1-[(2R)-2-hydroxy-2,3-dihydro-1H-inden-4-yl]-3-[(1R)-4-(trifluoromethyl)-2,3-dihydro-1H-inden-1-yl]urea] are 56% and 13 nM.
